Test results from patent publication US12384751B2, “Allosteric activators of the ALPHA1A-adrenergic receptor” (The Cleveland Clinic Foundation, priority 2019, dated 2025).
“Also recorded” adds a separate entry of the source. Read-outs that look alike come from different tables or passages of the source.

Assays:
[1] = tested on: 3×TG Alzheimer's Disease (AD) mouse model; conditions: in vivo
Method: (§1) AD mice were first randomized and sorted into control or treatment groups. […] 14 AD mice from each treatment group received Compound 3 in the drinking water (2.611 mg/kg/bw) to deliver a daily dose near the peak potentiation of the cAMP response in the brain at 10^−8M based upon the PAM assay and pharmacokinetics. This was achieved by adding Compound 3 to the drinking water at 32 uM, assuming the mice drink 6 ml/day, with only 10% of bioavailable drug reaching the brain. The drug was administered in the drinking water for 10 months, starting at age 2 months, then subjected to either different cognitive behavioral tests or electrophysiology at age 12 months to maximize the manifestations of AD symptoms in these mice. Mice are maintained on the drug for the duration of the studies and blinded to the operator.

[2] = Body weight of 3×TG AD mice; assay type: in vivo, mouse; conditions: female 3×TG mice
Method: as §1
At 12 months of age mice were subjected to long term potentiation (LTP) (FIG. 25).
It is known that females in the 3×TG AD mouse model have higher penetrance for the disease than males so an increase in body weight may be a general sign of better health. Weight loss and muscle loss are well-known symptoms associated with AD (91-93).

[3] = molecular target: T1, α1B-AR (Homo sapiens, UniProt P35368); experiment: Competition binding with [125I]HEAT at α1B-AR
T1 construct: expressed in transfected cells; host or cells: Rat-1 fibroblast cells
T1 sequence (P35368 1-520): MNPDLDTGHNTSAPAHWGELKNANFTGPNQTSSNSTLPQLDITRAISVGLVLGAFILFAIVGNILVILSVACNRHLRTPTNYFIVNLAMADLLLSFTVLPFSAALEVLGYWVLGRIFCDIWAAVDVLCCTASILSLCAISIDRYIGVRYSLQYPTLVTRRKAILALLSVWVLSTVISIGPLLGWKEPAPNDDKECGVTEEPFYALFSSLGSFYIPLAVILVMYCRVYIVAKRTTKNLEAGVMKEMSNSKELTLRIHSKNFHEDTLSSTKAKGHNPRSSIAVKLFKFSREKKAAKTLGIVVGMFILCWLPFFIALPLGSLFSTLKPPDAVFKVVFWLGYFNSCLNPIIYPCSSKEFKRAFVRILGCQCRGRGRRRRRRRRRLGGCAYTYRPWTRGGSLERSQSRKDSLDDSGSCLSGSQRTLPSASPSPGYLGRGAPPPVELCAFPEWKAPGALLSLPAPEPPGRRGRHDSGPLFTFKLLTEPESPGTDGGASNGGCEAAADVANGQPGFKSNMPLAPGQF
Method: Competition binding assays: These compounds were characterized for their ligand binding properties at the α1-AR subtypes. The binding affinities of Compounds 1-10 were determined in a series of competition-binding experiments with the α1-AR-selective antagonist [^125I]HEAT as the radioligand. Assays were performed in duplicate in HEM buffer, in a total assay volume of 1000 μl. Radioligand binding assays are composed of 5 ug of membranes, harvested from Rat-1 fibroblast cells expressing only one of the alpha1-AR subtypes, HEM buffer containing GTP (composed of 20 mM HEPES, pH 7.4, 1.4 mM EGTA, 12.5 mM MgCl2, pH to 7.4), 0.5 mM GTP, 35-80 pM^125I-HEAT, and various doses of norepinephrine or epinephrine and incubated with shaking at 25° C. for 1-2 hours. The above conditions will convert all the conformations of the receptor into a single low affinity site. To show both high and low affinity sites of the receptor (typically seen with GPCR agonists), the GTP is removed from the binding buffer. Nonspecific binding was determined experimentally in the presence of 10^−4 M phentolamine. Unbound radioactivity was separated from membrane-bound radioactivity by filtration through Whatman GF/C filter paper. […] Bound radioactivity remaining on the filters was counted on an ICN gamma counter operating at 79.8% efficiency. Data are analyzed using Graphpad Prism.

[4] = molecular target: T2, α1A-AR (Homo sapiens, UniProt P35348); experiment: Competition binding with [125I]HEAT at α1A-AR (Rat-1 fibroblast membranes); design: expressed in transfected cells; host or cells: Rat-1 fibroblast cells
T2 sequence (P35348 1-466): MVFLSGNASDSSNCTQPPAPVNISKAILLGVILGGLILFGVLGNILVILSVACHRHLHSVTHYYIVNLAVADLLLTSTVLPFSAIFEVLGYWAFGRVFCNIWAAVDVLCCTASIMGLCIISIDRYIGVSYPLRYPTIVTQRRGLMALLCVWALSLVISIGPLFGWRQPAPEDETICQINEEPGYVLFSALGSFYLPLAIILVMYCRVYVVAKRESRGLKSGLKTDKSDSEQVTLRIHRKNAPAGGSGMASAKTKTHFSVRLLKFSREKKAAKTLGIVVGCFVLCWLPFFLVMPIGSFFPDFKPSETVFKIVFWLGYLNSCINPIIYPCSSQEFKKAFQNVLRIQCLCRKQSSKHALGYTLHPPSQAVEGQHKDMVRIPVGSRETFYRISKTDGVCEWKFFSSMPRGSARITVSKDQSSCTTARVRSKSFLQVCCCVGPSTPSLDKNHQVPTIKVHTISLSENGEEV
Method: Competition binding assays: […] Assays were performed in duplicate in HEM buffer, in a total assay volume of 1000 μl. […] The above conditions will convert all the conformations of the receptor into a single low affinity site. To show both high and low affinity sites of the receptor (typically seen with GPCR agonists), the GTP is removed from the binding buffer. Nonspecific binding was determined experimentally in the presence of 10^−4 M phentolamine. Unbound radioactivity was separated from membrane-bound radioactivity by filtration through Whatman GF/C filter paper. Filters are washed five times with 5 ml of cold HEM buffer containing 0.5 mMGTP (if added to the binding buffer but not if it was not added to the binding buffer). Bound radioactivity remaining on the filters was counted on an ICN gamma counter operating at 79.8% efficiency. Data are analyzed using Graphpad Prism.

[5] = tested on: 3×TG Alzheimer's Disease (AD) mouse model; experiment: Smart Cage locomotor activity in AD mice; assay type: in vivo; conditions: 48 hours

Question: With `CC(C)Cc1c(OCC2=NCCN2)cccc1N(C)S(C)(=O)=O` [Compound 3, N-[3-(4,5-Dihydro-1H-imidazol-2-ylmethoxy)-2-isobutyl-phenyl]-N-methyl-methanesulfonamide] as the compound, how does the “death rates between groups” value [1] read?
Answer: no differences in the death rates

Question: What about the “body weight vs untreated” value [2] of the same compound?
Answer: increased body weight; also recorded: retained or gained body weight

Question: What about the “specific binding at the α1B-AR” value [3] of the same compound?
Answer: little, if any, specific binding; also recorded: no affinity

Question: And the “binding behaviour against radiolabeled antagonist 125I-HEAT (full inhibition; competitive or allosteric)” value [4]?
Answer: cannot fully inhibit

Question: What about the Ki ([4]; 0.5 mM GTP in binding buffer, competition with 125I-HEAT, read-out: affinity for the α1A-AR) of the same compound?
Answer: ~100 nM

Question: What about the Ki ([4]; GTP removed from binding buffer, read-out: high affinity site) of the same compound?
Answer: 0.001 nM

Question: And the “locomotion assessed by amount of active time” value [5]?
Answer: little effect on locomotion

Question: What about the “locomotion assessed by velocity” value [5] of the same compound?
Answer: little effect on locomotion
